Data reported in US6905841B2, “Enzymatic substrates for detecting Pseudomonas aeruginas” (Biomerieux S.A., priority 1999, dated 2005).
Like-named read-outs stand apart in the source and are kept apart here.

Key:
β-alanine aminopeptidase [1] = assay type: cell-based, Ochrobactrum anthropi
β-alanine aminopeptidase [2] = details: Shigella dysenteriae; 10 strains tested
β-alanine aminopeptidase [3] = details: Comamonas testoteroni; 10 strains tested
β-alanine aminopeptidase [4] = system: β-alanine aminopeptidase
β-alanine aminopeptidase [5] = details: Pseudomonas stutzeri; 10 strains tested
β-alanine aminopeptidase [6] = details: 137 strains tested
β-alanine aminopeptidase [7] = assay type: cell-based; details: Shigella flexneri; 10 strains tested
β-alanine aminopeptidase [8] = details: Oligella urethralis; 10 strains tested
β-alanine aminopeptidase [9] = details: Chryseobacterium indologenes; 10 strains tested
β-alanine aminopeptidase [10] = assay type: cell-based; details: Shigella boydii; 10 strains tested
β-alanine aminopeptidase [11] = system: β-alanine aminopeptidase; remark: listed apart in the source
β-alanine aminopeptidase [12] = system: β-alanine aminopeptidase; remark: listed apart in the source
β-alanine aminopeptidase [13] = experiment: Two-substrate semi-solid medium (Trypticase Soy agar), colony color; assay type: cell-based; details: agar also contains 6-Chloro-3-indolyl-β-D-glycopyranoside and 3,5-Dihydroxy-2-naphthoic acid, 35-37° C., 18-24 hours
Protocol: The medium was poured out and inoculated as follows: • 10 dishes with pure cultures corresponding to five strains of Pseudomonas aeruginosa and five of Pseudomonas mendocina, and • 2 dishes with a mixture of two strains, one being of Pseudomonas aeruginosa and the other of Pseudomonas mendocina. The Petri dishes were incubated at 35-37° C. After 18-24 hours of incubation, the color of the colonies was recorded.

[14] = Ochrobactrum anthropi, 11 strains tested
[15] = Pseudomonas mendocina, 10 strains tested
[16] = Ralstonia pickettii, 10 strains tested
[17] = Chromobacterium violaceum, 11 strains tested

## Cc1cc(=O)oc2cc(NC(=O)CCN)ccc12
β-alanine aminopeptidase [1]; Ochrobactrum anthropi strains
  percentage of positive results: 100%
β-alanine aminopeptidase [1]; [14]
  Borderline results: 0
  Number of negative results: 0
  Number of positive results: 11
β-alanine aminopeptidase [2]
  Borderline results: 0
  Number of negative results: 10
  Number of positive results: 0
β-alanine aminopeptidase [3]
  Borderline results: 0
  Number of negative results: 10
  Number of positive results: 0
β-alanine aminopeptidase [4]; Pseudomonas mendocina strains
  percentage of positive results: 100%
β-alanine aminopeptidase [4]; [15]
  Borderline results: 0
  Number of negative results: 0
  Number of positive results: 10
β-alanine aminopeptidase [5]
  Borderline results: 0
  Number of negative results: 10
  Number of positive results: 0
β-alanine aminopeptidase [6]; Pseudomonas aeruginosa strains
  percentage of positive results: 97.8%
β-alanine aminopeptidase [6]; Pseudomonas aeruginosa
  Borderline results: 1
  Number of negative results: 2
  Number of positive results: 134
β-alanine aminopeptidase [7]
  Borderline results: 0
  Number of negative results: 10
  Number of positive results: 0
β-alanine aminopeptidase [8]
  Borderline results: 0
  Number of negative results: 10
  Number of positive results: 0
β-alanine aminopeptidase [9]
  Borderline results: 0
  Number of negative results: 10
  Number of positive results: 0
β-alanine aminopeptidase [10]
  Borderline results: 0
  Number of negative results: 10
  Number of positive results: 0
β-alanine aminopeptidase [11]; Ralstonia pickettii strains
  percentage of positive results: 20%
β-alanine aminopeptidase [11]; [16]
  Borderline results: 0
  Number of negative results: 8
  Number of positive results: 2
β-alanine aminopeptidase [12]; Chromobacterium violaceum strains
  percentage of positive results: 10%
β-alanine aminopeptidase [12]; [17]
  Borderline results: 1
  Number of negative results: 9
  Number of positive results: 1

## CNc1ccc(N(C)C(=O)CCN)cc1 [β-Alanyl-N,N′-dimethyl-p-phenylene-diamine]
β-alanine aminopeptidase [13]; Pseudomonas aeruginosa
  color of the colonies: Blue colonies with a blue halo
β-alanine aminopeptidase [13]; Pseudomonas mendocina
  color of the colonies: purple colonies with a blue halo
